According to patent US20250082618A1, “DOSING REGIMENS USING TOPICAL ROFLUMILAST COMPOSITIONS” (ARCUTIS BIOTHERAPEUTICS, INC., priority 2023, published 2025):

System: patients with atopic dermatitis
Assay: Phase III open-label trial: vIGA-AD, maintenance (BIW) dosing and disease control
Format: in vivo, human
Method: The vIGA-AD is a static evaluation of qualitative overall AD severity. This global assessment scale is an ordinal scale with five severity grades (reported only in integers of 0 to 4). Each grade is defined by a distinct and clinically relevant morphologic description that minimizes inter-observer variability (see Table 1). vIGA-AD is evaluated for the entire body except the scalp, palms, and soles.
A Phase III, multicenter, open-label clinical trial was carried out to investigate the use of a topical roflumilast emollient cream to treat patients with atopic dermatitis. The primary objective of this study was to assess long-term safety in a multicenter, open-label, single-arm study in subjects with atopic dermatitis treated with either […] (for subjects ≥6 years of age) or 0.05% (for subjects between 2 to 5 years of age) topical roflumilast cream.
The primary endpoints of the study were adverse events or serious adverse events. The secondary endpoints of this study were validated investigator Global assessment-atopic dermatitis (“vIGA-AD”) value 0 or 1 at each assessment, vIGA-AD success (defined as vIGA-AD value of 0 or 1 plus a 2-grade improvement from baseline), Worst Itch-Numeric Rating Score (“WI-NRS”) score over time, and Eczema Area and Severity Index (“EASI”) score over time.
All patients enrolled in this phase III study applied either a 0.15% or 0.05% roflumilast topical cream once daily until Week 4 of the study. Patients between 2-5 years of age received 0.05% roflumilast topical cream and patients 6 years of age or older received 0.15% roflumilast. Subjects who reached 6 years of age during the study were switched from 0.05% to 0.15% roflumilast topical cream at the first scheduled clinical visit following their sixth birthday. Study medication was applied for up to 24 or 52 weeks to all affected areas, except on the scalp. Beginning at the Week 4 visit, any subject who achieved vIGA-AD of 0 as confirmed by the Investigator at a scheduled or unscheduled clinical visit, was switched from daily to twice weekly administration of roflumilast topical cream. Instructions for the twice weekly administration were to apply the roflumilast topical cream on two nonconsecutive days per week (e.g. Monday and Thursday) to areas commonly and/or most recently affected by atopic dermatitis and any areas where atopic dermatitis was developing.
Clinical visits and phone contact were scheduled at Weeks 4, 12, 18, 24, 30, 36, 44, and 52 of the study. At clinical visits, subjects receiving twice weekly treatment (“maintenance treatment”) were permitted to continue maintenance treatment if vIGA-AD was either 0 or 1. Subjects evaluated at clinical visits with vIGA-AD 2 or greater were instructed to resume daily administration of roflumilast topical cream. Patients were also permitted to resume daily dosing, despite a vIGA-AD of 1, if signs or symptoms of atopic dermatitis were not adequately controlled with maintenance therapy.
Median duration of the first maintenance dosing period was ≥124 days for the 24-week cohort and ≥270 days for the 52-week cohort. 65% percent of these patients were on a maintenance dosing regimen through the final visit. Disease control was defined as a vIGA-AD score of 0, a switch to a maintenance dosing regimen, and a maintenance of a vIGA-AD score of 0 or 1.

## O=C(Nc1c(Cl)cncc1Cl)c1ccc(OC(F)F)c(OCC2CC2)c1 [roflumilast, N-(3,5-dichloropyrid-4-yl)-3-cyclopropylmethoxy-4-difluoromethoxybenzamide]
24-week cohort
  Median duration of the first maintenance (BIW) dosing period: ≥ 124 days
52-week cohort
  Median duration of the first maintenance (BIW) dosing period: ≥ 270 days
By Week 24 and Week 52
  number of patients who achieved vIGA-AD=0 and switched to maintenance (BIW) dosing: 132
By Week 24 and Week 52, once daily, twice weekly after vIGA-AD 0
  patients who achieved vIGA-AD=0 and switched to maintenance (BIW) dosing: 20.1%
Of the 132 patients who switched
  patients on maintenance (BIW) dosing regimen through the final visit: 65%
